Experimental data published in ChEMBL document CHEMBL4831556, “Discovery of a Novel Potent and Selective Calcium Release-Activated Calcium Channel Inhibitor: 2,6-Difluoro-N-(2'-methyl-3'-(4-methyl-5-oxo-4,5-dihydro-1,3,4-oxadiazol-2-yl)-[1,1'-biphenyl]-4-yl)benzamide. Structure-Activity Relationship and Preclinical Characterization” (J Med Chem, 2021).

Key:
[1] = Tmax in BALB/c mouse model of mBSA-induced delayed type hypersensitivity at 3 mg/kg, po administered twice daily for 7 days followed by mBSA challenge and measured after 24 hrs; format: ADME, organism-based; conditions: in vivo, time 8 day
[2] = Cmax in BALB/c mouse model of mBSA-induced delayed type hypersensitivity at 3 mg/kg, po administered twice daily for 7 days followed by mBSA challenge and measured after 24 hrs; format: ADME, organism-based; set-up: route oral, time 8 day, dose 3 mg/kg; conditions: in vivo
[3] = AUClast in BALB/c mouse model of mBSA-induced delayed type hypersensitivity at 10 mg/kg, po administered twice daily for 7 days followed by mBSA challenge and measured after 24 hrs; format: ADME, organism-based; set-up: route oral, time 8 day, dose 10 mg/kg; conditions: in vivo
[4] = Tmax in CFA-induced rheumatoid arthritis Lewis rat model at 1 mg/kg, po administered once daily for 15 days; format: ADME, organism-based; conditions: in vivo, time 15 day
[5] = Cmax in collagen-induced rheumatoid arthritis DBA/1J mouse model at 3 mg/kg, po administered twice daily for 15 days; format: ADME, organism-based; set-up: route oral, time 15 day, dose 3 mg/kg; conditions: in vivo
[6] = AUC(0 to t) in human at […] measured on day 14; format: ADME, organism-based; set-up: time 14 day; conditions: in vivo
[7] = Trough concentration in human whole blood at 80 mg, bid; format: ADME, tissue-based; conditions: read-out: Cmin

**Q.** What does the source list for `Cc1c(-c2ccc(NC(=O)c3c(F)cccc3F)cc2)cccc1-c1nn(C)c(=O)o1`?
**A.** Tmax [1]: 2 h; Cmax [2]: 1600 nM; AUC(0-t) at 192 h [3]: 17 µM·h; Tmax [4]: 2 h; Cmax [5]: 1900 nM; AUC(0-t) at 336 h [6]: 7050 ng·h/mL; concentration [7]: 667 nM
